Measured values reported in patent publication US6548553B2, “Styryl sulfone anticancer agents” (Temple University-of the Commonwealth System of Higher …, priority 1997, dated 2003).

System: JNK
Experiment: JNK immune complex kinase assay with GST-c-Jun substrate, treated cells
Format: cell-based
Details: 48 hours treatment; NIH3T3, MCF-7 or LnCaP
Experimental: To further establish if the activity of stress activated protein kinases (SAPKs), of which JNK is a member, is compromised in the presence of FRI-20, cells (NIH3T3, MCF-7 or LnCaP) were treated with FRI-20 dissolved in DMSO or with DMSO alone. Forty-eight hours later, the cells were lysed with kinase buffer and the lysates used for estimation of the amount of JNK present in each lysate by western blot analysis using JNK polyclonal antibody. The biochemical activity of the JNK present in the FRI-20-treated and mock-treated cell lysates was also determined by immunoprecipitation of JNK followed by incubation with GST-c-Jun protein as a substrate for JNK in the presence of [γ-^32P]ATP.
Accordingly, JNK-1 in 100 mg of cell extracts was immunoprecipitated by incubating the lysate with […] of JNK-1 polyclonal antibody (sc from Santa Cruz Biotechnology) for one hour followed by an additional incubation with 20 μl of protein A-Sepharose (Pharmacia) for one hour. The beads were washed twice with JNK lysis buffer (as described above) followed by two washes with JNK reaction buffer. The beads were resuspended in 40 μl of JNK buffer containing […] [γ-^32P] […] The reaction was stopped, and the radioactivity in the phosphorylated GST-c-Jun protein was quantitated.

In the case of O=S(=O)(/C=C/c1ccc(F)cc1)Cc1ccc(Cl)cc1 [Example 11, E-4-fluorostyryl 4-chlorobenzyl Sulfone], the “enhancement of JNK phosphorylation of GST-c-Jun compared to mock-treated cells” value is reported as 60-80%.
